Active and inactive are the calls of the source. No cut-off for these calls is given here.
Legend:
[1] = system: MCF7; experiment: Cytotoxicity against human MCF7 cells expressing wild type RECQL5 assessed as cell growth inhibition measured after 72 hrs by MTT assay; format: functional; settings: dose 6-50 µM
[2] = system: MCF7; experiment: Cytotoxicity against human MCF7 cells with shRNA-mediated WRN depletion assessed as reduction in cell viability at 6 to 25 uM measured after 8 to 10 days by clonogenic survival assay; format: functional, cell-based; settings: dose 6-25 µM, time 8-10 day
[3] = system: MCF7; experiment: Induction of mitotic catastrophe phenotype in human MCF7 cells assessed as nuclear bridge formation at 20 uM pretreated with cisplatin for 8 hrs followed by compound addition and measured after 24 hrs by immunofluorescence microscopic analysis; format: functional, cell-based
[4] = system: MCF7; experiment: Cytotoxicity against human MCF7 cells with shRNA-mediated RECQL1 depletion assessed as reduction in cell viability at 6 to 25 uM measured after 8 to 10 days by clonogenic survival assay; format: functional, cell-based; settings: dose 6-25 µM, time 8-10 day
[5] = system: T47D; experiment: Induction of DNA damage in human T47D cells expressing wild type RECQL5 assessed as double strand breaks by measuring increase in gamma-H2AX foci formation incubated for 24 hrs by immunofluorescence microscopic analysis; format: functional, cell-based; settings: dose 0-20 µM
[6] = system: T47D; experiment: Inhibition of homologous recombinant repair in RECQL5 knock out human T47D cells assessed as stabilization of RAD51-RECQL5 interaction by measuring increase in RAD51 foci formation at 20 uM measured after 4 to 24 hrs by immunofluorescence microscopic analysis; format: functional, cell-based; settings: time 4-24 hrs
[7] = system: MCF7; experiment: Induction of cell sensitization to cisplatin in human MCF-7 cells assessed as reduction in colony formation at 5 uM measured after 8 to 10 days by clonogenic survival assay; format: functional, cell-based; settings: time 8-10 day
[8] = system: MCF7; experiment: Effect on NHEJ-mediated double strand break repair in RECQL5 knock out human MCF7 cells assessed as accumulation of KU80 on chromatin at 20 uM measured up to 24 hrs by Western blot analysis; format: cell-based; settings: time hrs <=24
[9] = system: MCF7; experiment: Induction of DNA damage in human MCF7 cells expressing wild type RECQL5 assessed as double strand breaks by measuring increase in phosphorylation of CHK1 at S345 residue at 20 uM measured up to 24 hrs by Western blot analysis; format: functional, cell-based; settings: time hrs <=24
[10] = system: MCF7; experiment: Stabilization of RECQL5-RAD51 complex in human MCF7 cells expressing wild type RECQL5 assessed as increase in accumulation of chromatin-bound RECQL5 and RAD51 at 20 uM measured after 4 to 24 hrs by Western blot analysis; format: cell-based; settings: time 4-24 hrs, TDE = time-dependent effect
[11] = system: MCF7; experiment: Inhibition of homologous recombinant repair in human MCF7 cells expressing RECQL5 wildtype assessed as stabilization of RAD51-RECQL5 interaction by measuring increase in RAD51 foci formation at 20 uM measured after 4 to 24 hrs by immunofluorescence microscopic analysis; format: functional, cell-based; settings: time 4-24 hrs
[12] = system: MCF7; experiment: Antitumor activity against human MCF7 cells expressing wild type RECQL5 xenografted in nude mouse assessed as reduction in tumor growth at 50 mg/kg, po administered as single dose via gavage measured after 30 days; format: functional, organism-based; settings: time 30.0 day, TDE = time-dependent effect
[13] = system: MCF7; experiment: Cytotoxicity against RECQL5 knock out human MCF7 cells assessed as cell growth inhibition measured after 72 hrs by MTT assay; format: functional; settings: dose 6-50 µM
[14] = Selectivity ratio of IC20 for cytotoxicity against human MCF-10A cells expressing RECQL5 to IC20 for cytotoxicity against human MCF7 cells expressing RECQL5; format: toxicity, cell-based
[15] = Toxicity in […] mouse assessed as fold change in alkaline phosphatase level at 100 mg/kg, po administered as single dose via gavage measured after 30 days relative to control; format: organism-based; settings: in vivo, 720 h, time 30 day
[16] = system: T47D; experiment: Inhibition of homologous recombinant repair in human T47D cells expressing wild type RECQL5 assessed as stabilization of RAD51-RECQL5 interaction by measuring increase in RAD51 foci formation at 20 uM measured after 4 to 24 hrs by immunofluorescence microscopic analysis; format: functional, cell-based; settings: time 4-24 hrs
[17] = Selectivity ratio of IC20 for cytotoxicity against RECQL5 knock out human MCF7 cells to IC20 for cytotoxicity against human MCF7 cells expressing RECQL5-WT; format: functional
[18] = system: MCF7; experiment: Cytotoxicity against human MCF7 cells expressing RECQL5-RFP K58M helicase dead mutant assessed as sensitizing activity by measuring colony survival at 5 to 20 uM measured after 8 to 10 days by clonogenic survival assay; format: functional, cell-based; settings: dose 5-20 µM, time 8-10 day
[19] = system: MCF7; experiment: Induction of DNA damage in human MCF7 cells expressing wild type RECQL5 assessed as double strand breaks by measuring increase in phosphorylation of RPA2 at 20 uM measured after 4 to 24 hrs by Western blot analysis; format: functional, cell-based; settings: time 4-24 hrs, TDE = time-dependent effect
[20] = system: MCF7; experiment: Cytotoxicity against RECQL5 knock out human MCF7 cells expressing […] assessed as reduction in colony formation at 10 uM measured after 8 to 10 days by clonogenic survival assay; format: functional, cell-based; settings: time 8-10 day
[21] = system: MCF7; experiment: Effect on NHEJ-mediated double strand break repair in RECQL5 knock out human MCF7 cells assessed as accumulation of DNA-dependent protein kinase on chromatin at 20 uM measured up to 24 hrs by Western blot analysis; format: cell-based; settings: time hrs <=24
[22] = Chronic toxicity in […] mouse assessed as effect on food/water uptake at 100 mg/kg, po administered as single dose via gavage measured for 30 days; format: organism-based; settings: in vivo, 720 h, time 30 day
[23] = system: MCF7; experiment: Induction of mitotic catastrophe phenotype in human cisplatin-resistant MCF7 cells assessed as micronucleus formation at 20 uM pretreated with cisplatin for 8 hrs followed by compound addition and measured after 24 hrs by immunofluorescence microscopic analysis; format: functional, cell-based
[24] = system: U2OS; experiment: Induction of apoptosis in RECQL5 depleted human U2OS cells assessed as cell death measured after 72 hrs by propidium iodide/RNase A staining based flow cytometric analysis; format: functional
[25] = system: MCF7; experiment: Stabilization of RECQL5-RAD51 complex in human MCF7 cells expressing wild type RECQL5 assessed as increase in accumulation of nucleus-bound RECQL5 and RAD51 at 20 uM measured after 4 to 24 hrs by Western blot analysis; format: cell-based; settings: time 4-24 hrs
[26] = Chronic toxicity in […] mouse assessed as change in body weight at 100 mg/kg, po administered as single dose via gavage measured for 30 days; format: organism-based; settings: in vivo, 720 h, time 30 day
[27] = Drug concentration in nude mouse serum at 50 mg/kg, po administered alternative days via gavage and measured upto 4 hrs by HPLC analysis; format: ADME, organism-based; settings: read-out: Drug uptake
[28] = Toxicity in nude mouse xenografted with human MCF7 cells assessed as morphological changes in heart at 50 mg/kg, po administered via oral gavage and measured after 30 days; format: organism-based; settings: in vivo, 720 h, time 30 day
[29] = system: T47D; experiment: Stabilization of RECQL5-RAD51 complex in RECQL5 knock out human T47D cells expressing wild type RECQL5-FLAG assessed as increase in RAD51-RECQL5-FLAG pull down at 20 uM measured after 8 hrs by coimmunoprecipitation assay; format: cell-based
[30] = Inhibition of ds-DNA dependent human RECQL5 ATPase activity measured after 60 mins by luciferin-based multiplate reader method
[31] = system: MCF7; experiment: Cytotoxicity against human MCF7 cells expressing RECQL5 assessed as cell growth inhibition measured after 72 hrs by MTT assay; format: functional
[32] = system: U2OS; experiment: Cytotoxicity against human U2OS cells expressing wild type RECQL5 and p53 mutant assessed as reduction in colony formation measured after 8 to 10 days by clonogenic survival assay; format: functional, cell-based; settings: time 8-10 day

With `O=C(Nc1cc(C(F)(F)F)cc(C(F)(F)F)c1)N[C@@H](c1ccccc1)c1nnc(SCc2ccccc2)o1` the IC20 [1] was 8.2 µM, the Activity [2] was “Active” and the Activity [3] was “Active”. The Activity [4] was “Active”, the Activity [5] was “Dose-Dependent Effect” and the inhibition [6] was “inactive”. The Activity [7] was “Active”, the Activity [8] was “inactive” and the Activity [9] was “Active”. For the same compound, the Activity [10] was “Tde”, the inhibition [11] was “Active” and the Activity [12] was “Tde”. For the same compound, the IC20 [13] was 22.3 µM, the selectivity ratio [14] was 4 and the “fold change (FC)” value [15] was 0.97. For the same compound, the inhibition [16] was “Active”, the selectivity ratio [17] was 2.7 and the Activity [18] was “Active”. The Activity [19] was “Tde”, the Activity [20] was “inactive” and the Activity [21] was “inactive”. The Activity [22] was “Non-Toxic”, the Activity [23] was “Active” and the Activity [24] was “inactive”. The Activity [25] was “inactive”, the Activity [26] was “Non-Toxic” and the concentration at 4 h [27] was 14.8 µM. For the same compound, the Activity [28] was “Non-Toxic”, the Activity [29] was “Active” and the IC50 [30] was 23.9 µM. For the same compound, the IC20 [31] was 8.4 µM and the Activity [32] was “Active”.

— ChEMBL document CHEMBL5038569, “Targeting RECQL5 Functions, by a Small Molecule, Selectively Kills Breast Cancer in Vitro and in Vivo” (J Med Chem, 2021)
